The values below come from ChEMBL document CHEMBL1932915, “Synthesis and biological evaluation of sialic acid derivatives containing a long hydrophobic chain at the anomeric position and their C-5 linked polymers as potent influenza virus inhibitors” (Bioorg Med Chem, 2012).

SMILES strings stand for the structures.

For one experiment, the target named is Neuraminidase (Influenza A virus, UniProt B4URF0). Briefly: Inhibition of Avian influenza virus A/DK/HK/313/78 (H5N3) neuraminidase using 4-MU-Neu5Ac as substrate after 30 mins by fluorimetry.
Experiment [1] deals with Neuraminidase (Influenza A virus (A/Puerto Rico/8/1934(H1N1)), UniProt P03468). Kind of experiment: Inhibition of Human influenza virus A/PR/8/34 (H1N1) neuraminidase using 4-MU-Neu5Ac as substrate after 30 mins by fluorimetry.
For experiment [2], the target named is Neuraminidase (Influenza A virus (A/Aichi/2/1968(H3N2)), UniProt Q75VQ4). Briefly: Inhibition of Human influenza virus A/Aichi/2/68 (H3N2) neuraminidase using 4-MU-Neu5Ac as substrate after 30 mins by fluorimetry.
Experiment [3] in a line: Inhibition of Avian influenza virus A/DK/HK/313/78 (H5N3) hemagglutininin activity in chicken erythrocytes after 1 hr. It counts as cell-based.

Chain of Neuraminidase (Influenza A virus (A/Puerto Rico/8/1934(H1N1)), UniProt P03468) (P03468 whole entry): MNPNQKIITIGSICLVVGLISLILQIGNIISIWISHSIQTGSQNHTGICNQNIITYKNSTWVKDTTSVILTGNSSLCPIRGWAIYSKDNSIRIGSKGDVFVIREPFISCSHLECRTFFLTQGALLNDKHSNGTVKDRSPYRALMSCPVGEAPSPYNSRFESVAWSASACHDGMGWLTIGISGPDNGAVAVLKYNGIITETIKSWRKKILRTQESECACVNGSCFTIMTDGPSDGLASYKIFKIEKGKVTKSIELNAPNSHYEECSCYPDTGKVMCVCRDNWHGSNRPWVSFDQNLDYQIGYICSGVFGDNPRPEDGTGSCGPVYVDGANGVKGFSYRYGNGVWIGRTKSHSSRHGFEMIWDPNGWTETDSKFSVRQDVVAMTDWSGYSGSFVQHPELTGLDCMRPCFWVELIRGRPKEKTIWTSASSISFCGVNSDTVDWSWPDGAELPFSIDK
Chain of Neuraminidase (B4URF0 whole entry): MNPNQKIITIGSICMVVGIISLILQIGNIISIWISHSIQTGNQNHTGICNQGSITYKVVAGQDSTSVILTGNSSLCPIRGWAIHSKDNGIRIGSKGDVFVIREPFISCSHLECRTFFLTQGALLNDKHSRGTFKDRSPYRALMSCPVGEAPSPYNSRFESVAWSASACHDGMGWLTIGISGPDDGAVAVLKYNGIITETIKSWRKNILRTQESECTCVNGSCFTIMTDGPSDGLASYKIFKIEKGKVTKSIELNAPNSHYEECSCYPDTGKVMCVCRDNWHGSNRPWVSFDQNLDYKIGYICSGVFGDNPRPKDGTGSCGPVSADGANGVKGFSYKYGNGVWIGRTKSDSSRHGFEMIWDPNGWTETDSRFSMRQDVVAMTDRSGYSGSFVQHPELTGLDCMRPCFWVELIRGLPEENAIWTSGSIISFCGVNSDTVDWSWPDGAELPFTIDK
Chain of Neuraminidase (Influenza A virus (A/Aichi/2/1968(H3N2)), UniProt Q75VQ4) (Q75VQ4 whole entry): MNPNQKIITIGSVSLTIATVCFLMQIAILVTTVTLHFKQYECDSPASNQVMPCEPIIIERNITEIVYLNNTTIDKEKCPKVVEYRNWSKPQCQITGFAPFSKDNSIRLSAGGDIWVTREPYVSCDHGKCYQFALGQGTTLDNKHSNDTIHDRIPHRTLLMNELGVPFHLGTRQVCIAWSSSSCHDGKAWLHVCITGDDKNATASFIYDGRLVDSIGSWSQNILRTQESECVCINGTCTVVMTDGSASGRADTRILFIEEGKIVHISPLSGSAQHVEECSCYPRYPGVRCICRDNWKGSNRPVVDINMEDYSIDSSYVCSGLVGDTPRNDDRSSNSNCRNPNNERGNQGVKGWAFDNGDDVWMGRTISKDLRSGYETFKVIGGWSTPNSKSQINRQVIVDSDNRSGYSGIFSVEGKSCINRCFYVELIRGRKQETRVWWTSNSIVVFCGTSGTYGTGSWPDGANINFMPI

In general, EC50 refers to the concentration that produces a half-maximal response. Low values mean a more potent agent, high ones a less potent agent. As to `C=CC(=O)N[C@H]1[C@H]([C@H](O)[C@H](O)CO)O[C@@](SCCCCCCCCCCCC)(C(=O)O)C[C@@H]1O`, the EC50 at Neuraminidase is 533 µM; in experiment [1], 1350 µM; in experiment [2], 428 µM.

In general, IC50 refers to the concentration that inhibits the measured activity by half. Consider `C=CC(=O)N[C@H]1[C@H]([C@H](O)[C@H](O)CO)OC(O)(C(=O)O)C[C@@H]1O` (stereo not given in full), for which the EC50 turned out to be 609 µM on Neuraminidase, 2480 µM in experiment [1] and 1080 µM in experiment [2]. In experiment [3], this molecule gave an IC50 of over 250 µM.

Turning to `C=CC(=O)NCCCCCC(=O)N[C@H]1[C@H]([C@H](O)[C@H](O)CO)O[C@@](SCCCCCCCCCCCC)(C(=O)O)C[C@@H]1O`, the results for the EC50 (on Neuraminidase; in experiment [1]; in experiment [2]) were 102 µM, 743 µM and 840 µM, respectively.
